PubChem BioAssay AID1189 (EPA DSSTox, 2008)
Calls of active or inactive are those of the source.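 Rule for the calls: active = a tumor-causing dose value with its tumor site reported for any sex and species group of a rodent or other animal cancer study; inconclusive = only studies judged inadequate by the national testing program; inactive = tested in at least one study, none positive.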

Experiment: DSSTox (CPDBAS) Carcinogenic Potency Database Summary SingleCellCall Results
Conditions: animal chronic carcinogenicity bioassays, CPDB summary call
Outline: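 Literature-derived summary: each substance receives an overall carcinogenic/non-carcinogenic category drawn from long-term bioassays in rats, mice, hamsters, dogs or primates, using the most positive sex-species experiment and minimal evidence criteria.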

| SMILES | outcome |
| --- | --- |
| NC(=S)Nc1ccccc1 | inactive |
| ClC(Cl)C(Cl)Cl | active |
| OCC(O)CO | inactive |
| O=P1(NCCCl)OCCCN1CCCl (centres undefined) | active; inactive |
| Clc1ccc(C(c2ccccc2Cl)C(Cl)Cl)cc1 (centres undefined) | inactive |
| [Cd+2].[Cl-].[Cl-] | active; inactive |
| Nc1ccccc1C(=O)OC/C=C/c1ccccc1 | active |
| CCOC(=O)C1OC1(C)c1ccccc1 (centres undefined) | inactive |
| CN1C2CC[C@@H]1CC(NC(=O)c1cc(Cl)cc3c1OC(C)(C)C3)C2 (some centres undefined) | inactive |
| [CH3][Hg][Cl] | active |
| CC(=O)CN(N=O)C(=O)NCCCl | active |
| O=C(N[C@H](CO)[C@H](O)c1ccc([N+](=O)[O-])cc1)C(Cl)Cl | inactive |
| CNNC | active |
| O=C(O)CNCC(=O)O | inactive |
| CC1(C)OC(=O)NC1=O | inactive |
| CC(O)C(=O)O (centres undefined) | inactive |
| CN(C)c1ccc(C(=O)c2ccc(N(C)C)cc2)cc1 | active |
| Nc1nc(N)nc(-c2cc(Cl)ccc2Cl)n1 | inactive |
| N/C(=N\O)c1ccc([N+](=O)[O-])o1 | inactive |
| CC1=C(C(=O)OCCN(Cc2ccccc2)c2ccccc2)C(c2cccc([N+](=O)[O-])c2)C(P2(=O)OCC(C)(C)CO2)=C(C)N1 (centres undefined) | inactive |
| OCN(CO)c1nc(N(CO)CO)nc(N(CO)CO)n1 | active |
| C=C/C1=C/[C@H](C)[C@](C)(OC(C)=O)C(=O)OCC2=CC[N+]3(C)CC[C@@H](OC1=O)C23[O-] (some centres undefined) | active; inactive |
| O=NN1CSCSC1 | inactive |
| O=[N+]([O-])c1cc(N(CCO)CCO)ccc1NCCO | inactive |
| CC(C)(C)c1cc(CO)cc(C(C)(C)C)c1O | inactive |

| SMILES | outcome |
| --- | --- |
| COc1ccc(N)cc1 | inactive |
| Oc1ccc2c(c1)OCO2 | active; inactive |
| Nc1nc(N)c2nc(-c3ccccc3)c(N)nc2n1 | active; inactive |
| NNCCO | active; inactive |
| Nc1ccccc1N | active; inactive |
| Oc1c(Cl)cc(Cl)c(Cl)c1Cc1c(O)c(Cl)cc(Cl)c1Cl | inactive |
| OC[C@@H](O)[C@H]1O[C@@H]2O[C@H](C(Cl)(Cl)Cl)O[C@@H]2[C@H]1O | inactive |
| CCN(CC)CCCNC(=O)Cn1ncc(-c2ccccc2)c1-c1ccccc1 | inactive |
| c1ccc(Nc2ccc(Nc3ccccc3)cc2)cc1 | inactive |
| O=S(=O)(O)c1c(N=Nc2c(O)ccc3ccccc23)ccc2ccccc12 | inactive; active |
| NNC(N)=O | active; inactive |
| C[C@H](CCC(=O)O)[C@H]1CC[C@H]2[C@@H]3CC[C@@H]4C[C@H](O)CC[C@]4(C)[C@H]3CC[C@]12C | inactive |
| NC(=O)c1cnccn1 | inactive |
| CCCN(N)C=O | active |
| CCn1cc(C(=O)O)c(=O)c2ccc(C)nc21 | active |
| O=C(Nc1ccc([N+](=O)[O-])cc1Cl)c1cc(Cl)ccc1O | inactive |
| CCCl | active; inactive |
| c1ccc(NNc2ccccc2)cc1 | active |
| FCCl | active |
| Nc1cnn([C@@H]2O[C@H](CO)[C@@H](O)[C@H]2O)c(=O)n1 | inactive |
| CCCCCCCCCc1ccc(OCCOCCO)cc1 | inactive; active |
| CN(C)/N=N/c1nc[nH]c1C(N)=O | active |
| C=C(C)C(=O)Nc1ccc(Cl)c(Cl)c1 | inactive |
| C[C@]12C=CC(=O)C=C1CC[C@@H]1[C@@H]2C(=O)C[C@@]2(C)[C@H]1CC[C@]2(O)C(=O)CO | inactive |
| O=[N+]([O-])c1ccc(Cl)c([N+](=O)[O-])c1 | inactive |

| SMILES | outcome |
| --- | --- |
| CC(C)n1c(/C=C/[C@@H](O)C[C@@H](O)CC(=O)O)c(-c2ccc(F)cc2)c2ccccc21 | active |
| O=[N+]([O-])c1ccc2nc[nH]c2c1 | active |
| CCS(=O)(=O)c1ccc(S(N)(=O)=O)c2ccccc12 | active |
| CN(C)CCOC(C)(c1ccccc1)c1ccccn1 (centres undefined) | active; inactive |
| O=S(=O)(c1ccc(Cl)cc1)c1cc(Cl)c(Cl)cc1Cl | inactive |
| COc1ccc(N)c(OC)c1 | inactive |
| COc1ccc([N+](=O)[O-])cc1N | active |
| CC(O)CO (centres undefined) | inactive |
| CC(=O)CN(CC(O)CO)N=O (centres undefined) | active |
| O=C(O)c1ccncc1 | inactive |
| O=C1CCN([C@@H]2O[C@H](CO)[C@@H](O)[C@H]2O)C(=O)N1 | inactive |
| Cc1cccc(C)c1N | inactive; active |
| C[C@]12CC[C@H](OS(=O)(=O)O)CC1=CC[C@@H]1[C@@H]2CC[C@]2(C)C(=O)CC[C@@H]12 | inactive; active |
| CCOCCc1c(-c2ccccc2)nc(N)n2ncnc12 | active; inactive |
| C1CC2OC2CC1C1CO1 (centres undefined) | inactive |
| CN(N=O)C(=O)N[C@@H]1[C@@H](O)[C@H](O)[C@@H](CO)O[C@@H]1O | active |
| O=C1c2ccccc2C(=O)c2c(O)cccc21 | active |
| Nc1ccc(N)c(Cl)c1 | inactive |
| NC(=O)CCCCn1ccc(NC(N)=NCC(F)(F)F)n1 | active; inactive |
| CCNC(=O)Nc1ncc([N+](=O)[O-])s1 | active |
| Nc1cc([N+](=O)[O-])ccc1C(=O)O | inactive |
| O=NN1CC(=O)NC1=O | active |
| S=P(N1CC1)(N1CC1)N1CC1 | active |
| CC/C(C)=N/O | active; inactive |
| CC1(C)COC1=O | active |

| SMILES | outcome |
| --- | --- |
| O=S(=O)(O)c1ccc2c(N=Nc3ccc(S(=O)(=O)O)c4ccccc34)c(O)c(S(=O)(=O)O)cc2c1 | active |
| C=C1CC[C@H](O)C/C1=C/C=C1\CCC[C@]2(C)[C@@H]([C@H](C)/C=C/[C@H](C)C(C)C)CC[C@@H]12 | inactive |
| CC/C(=C(/CC)c1ccc(O)cc1)c1ccc(O)cc1 | active |
| O=C1N(CCO)CCN1/N=C/c1ccc([N+](=O)[O-])o1 | active |
| COc1cc(-c2ccc(N=C=O)c(OC)c2)ccc1N=C=O | active |
| CC(C)(CCCOc1ccc(OCCCC(C)(C)C(=O)O)c(-c2ccccc2)c1)C(=O)O | active |
| Cn1c(N)nc2ncc(-c3ccccc3)cc21 | active |
| ClCC(Br)CBr (centres undefined) | active |
| CNC[C@H](O)c1cccc(O)c1 | inactive |
| CCN(CC)C(=S)S[Se](SC(=S)N(CC)CC)(SC(=S)N(CC)CC)SC(=S)N(CC)CC | active; inactive |
| CN[C@H]1CCc2cc(OC)c(OC)c(OC)c2-c2ccc(OC)c(=O)cc21 | inactive |
| O=C1NC(c2ccc([N+](=O)[O-])s2)Nc2ccccc21 (centres undefined) | active |
| O=S(=O)([O-])[O-].[Cd+2] | active; inactive |
| Cc1ccc2c(c1)C(N1CCN(C)CC1)=Nc1ccccc1S2 | inactive |
| O=C(O)CN(CCN(CC(=O)O)CC(=O)O)CC(=O)O | inactive |
| CN(C)CCN(C)N=O | active; inactive |
| Brc1cc(Br)c(-c2c(Br)c(Br)c(Br)c(Br)c2Br)c(Br)c1Br | active; inactive |
| c1ccoc1 | active; inactive |
| CCN(CC)C(=O)c1cccc(C)c1 | inactive |
| O=C(O)CCC(=O)O | inactive; active |
| CN(C)CCOc1ccc(/C(=C(/CCCl)c2ccccc2)c2ccccc2)cc1 | inactive |
| CCn1nc(C)c2c1C(c1ccccc1)=NCC(=O)N2 | active |
| CCC(C)c1cc([N+](=O)[O-])cc([N+](=O)[O-])c1O (centres undefined) | inactive |
| CCN(CC)c1cc2oc3cc(=[N+](CC)CC)c(C)cc-3c(-c3ccc(S(=O)(=O)O)cc3S(=O)(=O)[O-])c2cc1C | inactive |
| COC(=O)C1=C(C)NC(C)=C(C(=O)OCC(C)(C)CN(C)Cc2ccccc2)C1c1cc([N+](=O)[O-])ccc1F (centres undefined) | inactive |

| SMILES | outcome |
| --- | --- |
| CCCCNN | active |
| CN1C(C(=O)Nc2ccccn2)=C(O)c2ccccc2S1(=O)=O | inactive |
| CCC[CH2][Sn]([CH2]CCC)([O]C(C)=O)[O]C(C)=O | inactive |
| O=C1C(Cl)=C(Cl)C(=O)c2ccccc21 | inactive |
| CN(N=O)c1ccccc1 | active |
| C=CBr | active |
| C=CN1CCCC1=O | active; inactive |
| CCCCC1(COC(=O)CCC(=O)O)C(=O)N(c2ccccc2)N(c2ccccc2)C1=O | inactive |
| Nc1nc(N)nc(-c2ccc([N+](=O)[O-])o2)n1 | active |
| CCC[C@@H]1O[C@@H]2C[C@H]3[C@@H]4CCC5=CC(=O)C=C[C@]5(C)[C@H]4[C@@H](O)C[C@]3(C)[C@]2(C(=O)CO)O1 | active; inactive |
| CCCN(N=O)C(N)=O | active |
| CC(Cl)CCl (centres undefined) | active; inactive |
| C/C=C1/C[C@@H](C)[C@](O)(CO)C(=O)OCC2=CCN3CC[C@@H](OC1=O)[C@@H]23 | active |
| C[C@]12C/C(=C/O)C(=O)C[C@@H]1CC[C@@H]1[C@@H]2CC[C@@]2(C)[C@H]1CC[C@]2(C)O | active |
| O=P(O)(OCC(Br)CBr)OCC(Br)CBr (centres undefined) | active; inactive |
| CCCCOCCO | active |
| COC(N)=O | active |
| C1CCCNCCC1 | inactive |
| CC(=O)[O][Sn]([c]1ccccc1)([c]1ccccc1)[c]1ccccc1 | inactive; active |
| CC(=O)OC[C@H]1O[C@H](O[C@]2(COC(C)=O)O[C@H](COC(=O)C(C)C)[C@@H](OC(=O)C(C)C)[C@@H]2OC(=O)C(C)C)[C@H](OC(=O)C(C)C)[C@@H](OC(=O)C(C)C)[C@@H]1OC(=O)C(C)C | inactive |
| O=C(Nc1nc(-c2ccc([N+](=O)[O-])o2)cs1)C(F)(F)F | active |
| Cc1cc2c(nc1N)[nH]c1ccccc12 | active |
| CCO | active |
| CC(=O)CN(CC(C)=O)N=O | active |
